Results on 7 compounds are retold here after ChEMBL document CHEMBL5465560, “Selectivity Literature for EUbOPEN Chemogenomic Library” (2024).

Assay [1] deals with Phosphatidylinositol 4,5-bisphosphate 3-kinase catalytic subunit gamma isoform (Homo sapiens) (UniProt P48736). Description: Selectivity interaction (Kinase panel (KiNativ target engagement assay in Jurkat cells)) EUB0001635a PIK3CG. The class given is cell-based. The conditions noted are these: at 1 µM.
The test system of assay [2] is Epidermal growth factor receptor (Homo sapiens), P00533 [G719C]. Description: (§1) Selectivity interaction (KinomeScan (DiscoverX)) EUB0000607a EGFR. The note with it: at 10 µM.
For assay [3], the system named is Epidermal growth factor receptor (Homo sapiens), P00533 [G719S]. The description is as §1. The conditions noted are these: at 10 µM.
Assay [4] deals with Epidermal growth factor receptor (Homo sapiens), P00533 [L858R,T790M]. The assay is described as §1. The conditions noted are these: at 10 µM.
The subject of assay [5] is Epidermal growth factor receptor (Homo sapiens), P00533 [L858R]. Described as §1. The note with it: at 10 µM.
For assay [6], the system named is Epidermal growth factor receptor (Homo sapiens), P00533 [L861Q]. The assay is described as §1. The conditions noted are these: at 10 µM.
For assay [7], the system named is Epidermal growth factor receptor (Homo sapiens), P00533 [T790M]. The assay is described as §1. The conditions noted are these: at 10 µM.
Assay [8] has as its system Epidermal growth factor receptor (Homo sapiens), P00533 [UNDEFINED MUTATION]. The assay is described as §1. The note with it: at 10 µM.
Assay [9] addresses Epidermal growth factor receptor (Homo sapiens, UniProt P00533). Described as §1. The note with it: at 10 µM.
Assay [10] relates to Mast/stem cell growth factor receptor Kit (Homo sapiens), P10721 [D816V]. The conditions noted are these: at 10 µM.
Assay [11] concerns the target Leukocyte tyrosine kinase receptor (Homo sapiens, UniProt P29376). Description: Selectivity interaction (KinomeScan (DiscoverX)) EUB0000666a LTK. The note with it: at 10 µM.
Assay [12] addresses Cyclin-dependent kinase 9 (Homo sapiens, UniProt P50750). The assay can be described thus: Selectivity interaction (KinomeScan (DiscoverX)) EUB0001619a CDK9. The conditions noted are these: at 1 µM.
For assay [13], the target named is DNA-dependent protein kinase catalytic subunit (Homo sapiens) (UniProt P78527). The assay can be described thus: Selectivity interaction (ActivX KiNativ screen (ex vivo kinase selectivity in human PBMCs)) EUB0001619a PRKDC. Type of assay: cell-based. The conditions noted are these: PBMC, at 1 µM.
The target in assay [14] is T1, Ephrin type-A receptor 6 (Homo sapiens) (UniProt Q9UF33).
T1 sequence (whole entry): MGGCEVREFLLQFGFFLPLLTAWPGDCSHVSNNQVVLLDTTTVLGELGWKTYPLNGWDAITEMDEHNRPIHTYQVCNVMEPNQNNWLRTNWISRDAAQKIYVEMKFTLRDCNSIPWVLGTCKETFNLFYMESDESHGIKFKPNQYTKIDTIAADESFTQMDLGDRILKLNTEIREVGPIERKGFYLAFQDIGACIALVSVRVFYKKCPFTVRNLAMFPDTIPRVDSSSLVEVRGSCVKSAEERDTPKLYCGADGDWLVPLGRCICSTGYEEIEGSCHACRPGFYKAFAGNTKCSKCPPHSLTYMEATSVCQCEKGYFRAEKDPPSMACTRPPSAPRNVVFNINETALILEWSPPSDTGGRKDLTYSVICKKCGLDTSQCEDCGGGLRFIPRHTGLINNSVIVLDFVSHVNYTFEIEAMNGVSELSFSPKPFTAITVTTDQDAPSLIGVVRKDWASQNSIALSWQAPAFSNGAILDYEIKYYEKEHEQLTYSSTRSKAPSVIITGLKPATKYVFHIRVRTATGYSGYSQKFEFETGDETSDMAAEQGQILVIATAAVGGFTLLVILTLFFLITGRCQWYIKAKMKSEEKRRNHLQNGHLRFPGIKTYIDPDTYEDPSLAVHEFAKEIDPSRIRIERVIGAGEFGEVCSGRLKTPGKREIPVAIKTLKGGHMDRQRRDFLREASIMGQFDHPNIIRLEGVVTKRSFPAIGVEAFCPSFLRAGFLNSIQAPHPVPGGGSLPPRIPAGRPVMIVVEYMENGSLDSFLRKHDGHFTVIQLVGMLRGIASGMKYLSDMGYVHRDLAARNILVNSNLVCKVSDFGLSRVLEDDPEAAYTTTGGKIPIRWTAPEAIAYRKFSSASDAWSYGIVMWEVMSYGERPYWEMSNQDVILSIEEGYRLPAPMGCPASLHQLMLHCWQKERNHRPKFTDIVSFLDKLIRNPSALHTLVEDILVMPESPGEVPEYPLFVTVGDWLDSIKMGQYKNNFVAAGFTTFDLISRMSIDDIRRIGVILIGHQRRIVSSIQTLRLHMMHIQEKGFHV
The assay can be described thus: Selectivity interaction (ProQinase) EUB0000171b EPHA6.

For assay [15], the target named is T2, Serine/threonine-protein kinase Chk1 (Homo sapiens) (UniProt O14757).
T2 sequence (whole entry): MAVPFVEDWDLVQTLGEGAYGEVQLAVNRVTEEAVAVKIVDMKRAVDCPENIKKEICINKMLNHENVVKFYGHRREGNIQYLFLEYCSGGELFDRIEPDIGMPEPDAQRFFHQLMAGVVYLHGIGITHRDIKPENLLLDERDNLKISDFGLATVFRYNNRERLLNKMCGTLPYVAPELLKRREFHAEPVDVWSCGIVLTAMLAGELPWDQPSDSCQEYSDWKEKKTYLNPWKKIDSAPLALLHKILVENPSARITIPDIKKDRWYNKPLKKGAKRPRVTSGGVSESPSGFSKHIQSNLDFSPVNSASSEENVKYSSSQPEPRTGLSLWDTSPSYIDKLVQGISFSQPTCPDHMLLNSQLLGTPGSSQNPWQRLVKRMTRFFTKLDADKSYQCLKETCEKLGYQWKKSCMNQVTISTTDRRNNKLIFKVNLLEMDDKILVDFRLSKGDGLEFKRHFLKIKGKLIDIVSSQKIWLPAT
The assay can be described thus: Selectivity interaction (KinomeScan (DiscoverX)) EUB0000045b CHEK1.

DNA-dependent protein kinase catalytic subunit (Homo sapiens), sequence (P78527 whole entry): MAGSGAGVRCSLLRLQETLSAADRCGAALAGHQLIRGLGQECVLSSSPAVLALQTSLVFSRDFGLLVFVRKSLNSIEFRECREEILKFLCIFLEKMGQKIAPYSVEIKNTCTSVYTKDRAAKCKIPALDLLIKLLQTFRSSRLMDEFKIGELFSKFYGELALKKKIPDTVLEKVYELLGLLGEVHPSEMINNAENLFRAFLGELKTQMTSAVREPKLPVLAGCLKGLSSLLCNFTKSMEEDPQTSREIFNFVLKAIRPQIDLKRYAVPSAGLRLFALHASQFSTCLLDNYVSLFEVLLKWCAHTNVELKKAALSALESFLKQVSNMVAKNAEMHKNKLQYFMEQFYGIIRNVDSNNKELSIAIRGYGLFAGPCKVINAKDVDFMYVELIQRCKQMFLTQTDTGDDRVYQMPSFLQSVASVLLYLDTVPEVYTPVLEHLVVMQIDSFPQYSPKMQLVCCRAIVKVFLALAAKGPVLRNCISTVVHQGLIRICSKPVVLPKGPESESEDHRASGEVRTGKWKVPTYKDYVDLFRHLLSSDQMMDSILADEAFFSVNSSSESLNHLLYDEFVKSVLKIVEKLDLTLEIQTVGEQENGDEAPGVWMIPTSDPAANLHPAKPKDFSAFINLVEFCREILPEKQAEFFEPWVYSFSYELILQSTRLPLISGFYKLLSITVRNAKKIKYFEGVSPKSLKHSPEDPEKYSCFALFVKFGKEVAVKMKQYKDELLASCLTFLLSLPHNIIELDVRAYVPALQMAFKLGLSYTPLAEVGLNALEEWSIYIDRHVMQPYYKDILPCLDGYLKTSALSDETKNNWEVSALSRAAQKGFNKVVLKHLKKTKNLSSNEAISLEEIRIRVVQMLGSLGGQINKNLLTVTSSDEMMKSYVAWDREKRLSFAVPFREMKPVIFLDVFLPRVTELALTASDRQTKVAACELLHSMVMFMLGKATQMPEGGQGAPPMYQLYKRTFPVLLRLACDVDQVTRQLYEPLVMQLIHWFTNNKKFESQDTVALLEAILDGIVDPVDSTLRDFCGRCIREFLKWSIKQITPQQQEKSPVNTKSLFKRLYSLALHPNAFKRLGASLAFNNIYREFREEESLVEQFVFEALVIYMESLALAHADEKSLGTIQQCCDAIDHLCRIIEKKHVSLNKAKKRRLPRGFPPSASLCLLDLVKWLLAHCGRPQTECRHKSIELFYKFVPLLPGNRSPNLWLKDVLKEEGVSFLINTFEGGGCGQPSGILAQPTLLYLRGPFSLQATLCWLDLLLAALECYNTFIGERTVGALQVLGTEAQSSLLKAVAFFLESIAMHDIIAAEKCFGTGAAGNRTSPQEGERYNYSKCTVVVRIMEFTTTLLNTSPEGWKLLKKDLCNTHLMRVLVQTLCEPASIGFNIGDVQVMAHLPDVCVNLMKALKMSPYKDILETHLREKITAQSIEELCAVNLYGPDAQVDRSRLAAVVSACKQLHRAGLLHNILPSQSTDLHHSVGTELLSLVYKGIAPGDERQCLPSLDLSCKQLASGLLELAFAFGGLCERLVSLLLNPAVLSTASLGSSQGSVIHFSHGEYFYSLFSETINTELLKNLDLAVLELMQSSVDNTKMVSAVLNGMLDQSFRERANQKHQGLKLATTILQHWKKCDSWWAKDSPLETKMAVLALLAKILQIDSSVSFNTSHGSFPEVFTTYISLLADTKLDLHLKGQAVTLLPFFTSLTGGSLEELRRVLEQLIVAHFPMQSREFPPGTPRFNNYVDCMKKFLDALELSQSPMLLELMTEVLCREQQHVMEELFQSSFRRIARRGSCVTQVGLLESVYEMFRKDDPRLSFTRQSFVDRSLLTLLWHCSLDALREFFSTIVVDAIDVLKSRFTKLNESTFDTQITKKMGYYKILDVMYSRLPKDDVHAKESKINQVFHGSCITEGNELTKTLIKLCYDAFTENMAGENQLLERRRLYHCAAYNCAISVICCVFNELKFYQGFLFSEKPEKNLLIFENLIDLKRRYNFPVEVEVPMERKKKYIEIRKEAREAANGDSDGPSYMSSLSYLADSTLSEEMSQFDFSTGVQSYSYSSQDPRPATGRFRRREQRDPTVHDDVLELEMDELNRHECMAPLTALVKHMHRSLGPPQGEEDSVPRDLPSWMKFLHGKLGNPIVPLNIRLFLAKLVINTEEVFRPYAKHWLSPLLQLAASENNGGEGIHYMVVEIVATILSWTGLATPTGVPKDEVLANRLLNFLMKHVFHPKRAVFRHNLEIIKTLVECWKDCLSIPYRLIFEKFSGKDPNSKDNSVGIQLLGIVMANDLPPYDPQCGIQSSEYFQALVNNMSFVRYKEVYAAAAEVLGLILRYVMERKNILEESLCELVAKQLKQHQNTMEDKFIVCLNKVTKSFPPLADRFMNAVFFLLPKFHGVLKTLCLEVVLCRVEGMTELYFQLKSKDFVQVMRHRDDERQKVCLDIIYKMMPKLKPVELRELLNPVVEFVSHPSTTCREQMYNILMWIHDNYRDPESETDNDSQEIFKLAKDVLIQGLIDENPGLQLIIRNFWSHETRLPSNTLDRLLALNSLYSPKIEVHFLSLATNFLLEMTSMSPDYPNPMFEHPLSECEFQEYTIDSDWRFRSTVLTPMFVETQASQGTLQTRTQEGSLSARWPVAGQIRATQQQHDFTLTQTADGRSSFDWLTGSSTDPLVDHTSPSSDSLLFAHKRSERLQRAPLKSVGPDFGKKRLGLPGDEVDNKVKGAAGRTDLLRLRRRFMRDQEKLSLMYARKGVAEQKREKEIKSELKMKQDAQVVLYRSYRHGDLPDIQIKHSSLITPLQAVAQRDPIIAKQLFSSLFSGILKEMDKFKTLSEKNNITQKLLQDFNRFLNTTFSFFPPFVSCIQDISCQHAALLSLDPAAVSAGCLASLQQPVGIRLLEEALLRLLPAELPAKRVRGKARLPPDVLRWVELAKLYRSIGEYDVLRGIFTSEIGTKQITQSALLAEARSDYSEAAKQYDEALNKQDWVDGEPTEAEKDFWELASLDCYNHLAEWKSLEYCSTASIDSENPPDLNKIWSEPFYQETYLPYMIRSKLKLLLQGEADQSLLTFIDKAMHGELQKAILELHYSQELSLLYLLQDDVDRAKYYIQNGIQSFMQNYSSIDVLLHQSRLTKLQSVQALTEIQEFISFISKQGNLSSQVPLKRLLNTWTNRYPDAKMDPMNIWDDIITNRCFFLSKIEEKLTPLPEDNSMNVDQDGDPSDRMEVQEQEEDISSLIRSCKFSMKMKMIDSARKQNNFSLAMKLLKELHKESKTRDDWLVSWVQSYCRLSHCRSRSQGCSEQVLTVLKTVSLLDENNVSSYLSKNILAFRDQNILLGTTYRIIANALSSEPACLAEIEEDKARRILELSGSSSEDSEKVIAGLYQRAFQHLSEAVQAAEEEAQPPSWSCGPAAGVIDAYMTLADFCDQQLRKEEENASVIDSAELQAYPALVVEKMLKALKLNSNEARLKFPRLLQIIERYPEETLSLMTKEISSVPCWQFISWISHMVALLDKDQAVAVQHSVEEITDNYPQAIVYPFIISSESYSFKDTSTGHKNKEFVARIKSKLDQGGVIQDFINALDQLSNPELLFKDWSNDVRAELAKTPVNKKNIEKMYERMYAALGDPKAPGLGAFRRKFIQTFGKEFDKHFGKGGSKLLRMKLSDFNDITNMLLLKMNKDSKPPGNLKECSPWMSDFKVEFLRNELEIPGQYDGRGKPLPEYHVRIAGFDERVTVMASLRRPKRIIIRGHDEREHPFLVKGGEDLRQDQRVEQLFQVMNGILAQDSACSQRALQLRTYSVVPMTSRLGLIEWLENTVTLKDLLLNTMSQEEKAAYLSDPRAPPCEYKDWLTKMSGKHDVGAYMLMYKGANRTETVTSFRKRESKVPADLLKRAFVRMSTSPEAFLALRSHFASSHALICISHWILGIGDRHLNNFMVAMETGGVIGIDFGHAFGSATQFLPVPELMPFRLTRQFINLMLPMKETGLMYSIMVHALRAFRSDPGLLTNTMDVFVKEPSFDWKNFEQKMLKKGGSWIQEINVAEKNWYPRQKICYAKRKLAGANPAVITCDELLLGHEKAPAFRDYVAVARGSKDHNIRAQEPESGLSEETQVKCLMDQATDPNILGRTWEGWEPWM
Mast/stem cell growth factor receptor Kit (Homo sapiens), P10721 [D816V], sequence (P10721 whole entry D816V): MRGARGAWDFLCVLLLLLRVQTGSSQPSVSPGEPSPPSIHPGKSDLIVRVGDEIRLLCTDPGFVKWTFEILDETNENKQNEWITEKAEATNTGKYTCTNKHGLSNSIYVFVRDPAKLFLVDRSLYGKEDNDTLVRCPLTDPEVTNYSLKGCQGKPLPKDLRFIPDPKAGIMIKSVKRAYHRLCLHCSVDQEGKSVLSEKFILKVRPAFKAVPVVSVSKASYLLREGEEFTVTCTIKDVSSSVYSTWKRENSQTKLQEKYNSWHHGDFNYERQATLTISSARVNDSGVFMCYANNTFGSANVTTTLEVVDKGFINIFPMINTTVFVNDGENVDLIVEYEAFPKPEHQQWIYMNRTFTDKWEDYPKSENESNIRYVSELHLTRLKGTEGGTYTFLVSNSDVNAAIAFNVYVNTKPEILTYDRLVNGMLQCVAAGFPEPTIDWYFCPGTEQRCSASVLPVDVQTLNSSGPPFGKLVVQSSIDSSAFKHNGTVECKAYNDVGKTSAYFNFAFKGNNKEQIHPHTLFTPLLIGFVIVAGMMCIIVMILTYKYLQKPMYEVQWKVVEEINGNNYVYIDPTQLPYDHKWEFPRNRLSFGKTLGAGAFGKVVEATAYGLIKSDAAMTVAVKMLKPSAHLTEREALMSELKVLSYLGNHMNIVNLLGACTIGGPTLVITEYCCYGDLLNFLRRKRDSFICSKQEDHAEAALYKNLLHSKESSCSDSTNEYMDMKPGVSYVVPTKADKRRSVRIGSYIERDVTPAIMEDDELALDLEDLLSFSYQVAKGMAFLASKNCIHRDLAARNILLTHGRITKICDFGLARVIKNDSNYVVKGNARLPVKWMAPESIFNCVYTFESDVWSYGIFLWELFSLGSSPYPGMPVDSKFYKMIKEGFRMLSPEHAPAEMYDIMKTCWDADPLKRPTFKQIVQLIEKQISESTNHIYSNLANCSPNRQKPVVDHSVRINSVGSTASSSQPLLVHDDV

Turning to `C=CC(=O)Nc1ccc(C(=O)Nc2[nH]nc3c2CN(C(=O)N[C@H](CN(C)C)c2ccccc2)C3(C)C)cc1`, the % of engagement in assay [1] is -3.7%.

Regarding `CNC(=O)Nc1ccc(-c2nc(N3CC4CCC(C3)O4)c3cnn(C4CCC5(CC4)OCCO5)c3n2)cc1`, the % of control in assay [2] is 80%; in assay [3], 69%; in assay [4] it was 100%; in [5], 53%; in assay [6] it was 64%; in assay [7], 68%. In addition, the values for the % of control in assay [8] and in assay [9] were 38% and 62%, respectively.

As to `Cc1cc([C@@H](C)Nc2ccccc2C(=O)O)c2nc(N3CCOCC3)cc(=O)n2c1` [AZD-6482], the % of control in assay [10] is 81%.

`O=C(NOC[C@H](O)CO)c1ccc(F)c(F)c1Nc1ccc(I)cc1F` gave a % of control in assay [11] of 100%.

As to `N#Cc1cccc(-c2c[nH]c3ncnc(N4CCOCC4)c23)c1`, the % of control in [12] amounted to 97%. Further, the % of inhibition in assay [13] was -2%.

Turning to `C=CC(=O)Nc1cccc(C(=O)Nc2ccc(Nc3cc(-c4[nH]c(SC)nc4C)ccn3)cc2)c1`, the figures for the % of control in [14] (at 1 µM) and in [14] (at 5 µM) were 99% and 100%, respectively.

As for `C=CC(=O)Nc1cc(-n2c(=O)ccc3cnc4ccc(-c5ccc(NS(C)(=O)=O)cc5)cc4c32)ccc1C`, the % of control in assay [15] (at 1 µM) worked out at 100%; in assay [15] (at 10 µM), 79%.
